Laboratory results published in patent US20100004325A1, “Use of Baicalein As Prolyl Hydroxylase 2 Inhibitor” (Korea Institute of Science and Technology, priority 2007, published 2010).
Values joined by “and” are separate entries in the source; they are usually repeats but may differ in a detail not shown here. Equal entries are not always repeated.

Tests used:
[1] = target: T1, PHD2 (Homo sapiens, UniProt Q9GZT9); assay: Fluorescence polarization assay of PHD2-mediated hydroxylation of F-P564 peptide (binding to VBC protein); assay type: biochemical; conditions: proline hydroxylation 20 min, baicalein 0 to 200 μM, 500 nM VBC protein; read-out: concentration of baicalein that results in 50% inhibition of the PHD2 activity (IC50)
T1 construct: made in house; host or cells: E. coli BL21 (DE3), pGEX-4T-1
Description: In order to screen a PHD2 inhibitor, 1040 compounds having biological activities (NINDS Custom Collection II, MicroSource Discovery Systems) were used. First, 1 μl of each compound was aliquoted into a 1.5 ml tube at the final concentration of 20 μM. Then, GST-PHD2 (final concentration: 0.2-0.3 μg/μl) was mixed with the each compound, followed by adding a buffer (20 mM Tris-HCl, pH 8.0, 100 mM NaCl, 1 mM EDTA, 1 mM PMSF, 0.5% NP-40) thereto. […]
[…] After mixing at room temperature, the resulting mixture was transferred to a 96-well plate, and fluorescence polarization was measured by using VICTOR (Perkin-Elmer).
After obtaining the fluorescence polarization value of the mixture of the F-Hy564 peptide ([…]) in the buffer by VICTOR, the PHD2 inhibitory activity of each compound was represented in percentage based on that the fluorescence polarization value. 26 compounds with at least 60% of PHD2 inhibitory activity were randomly selected. […]
In order to examine the PHD2 inhibitory activity of baicalein, proline hydroxylation was performed for 20 min with increasing final concentrations of baicalein from 0 to 200 μM. […] Fluorescence polarization of the resulting mixture was measured by using a fluorometer (Perkin-Elmer), and the size of slit was 6 nm and the integration time was 5 sec.

[2] = target: T2, F-HyP564 peptide / VBC protein (Homo sapiens, UniProt P40337); assay: Fluorescence polarization of F-HyP564 peptide bound to VBC protein (counter-test); assay type: binding
T2 construct: made in house; host or cells: E. coli BL21 (DE3), co-expression of pGEX4T-VHL-EB and pDEV-EC (pET29b)

[3] = target: T1, PHD2; assay: Proline hydroxylation of B-P564 peptide by PHD2, MALDI mass spectrometry; assay type: biochemical; conditions: 800 μM baicalein, 1.4 μg/μl PHD2, 2 hours, room temperature
Description: For the analysis of proline hydroxylation, 800 μM of baicalein and 1.4 μg/μl of PHD2 were mixed in a buffer (20 mM Tris-HCl, pH 8.0, 100 mM NaCl, 1 mM EDTA, 1 mM PMSF, 0.5% NP-40) supplemented with ascorbic acid (final concentration: 400 μM) and α-ketoglutarate (final concentration: 100 μM). Then, 3 μM of the B-P564 peptide was added to the resulting mixture, and reacted at room temperature for 2 hours. Excess salts in the enzyme reactant were removed by ZipTipC18 (Millipore), and the eluted reactant was analyzed by MALDI mass spectrometry.

[4] = target: T3, FIH1 (Homo sapiens, UniProt Q9NWT6); assay: Asparagine hydroxylation of F-N803 peptide by FIH1, MALDI mass spectrometry; assay type: biochemical; conditions: 20 μM baicalein, 0.55 μg/μl His-FIH1, 2 hours, room temperature
T3 construct: made in house; host or cells: E. coli BL21 (DE3), pET-28a
Description: Further, in order to examine the inhibitory activity of baicalein against FIH1, 20 μM of baicalein and 0.55 μg/μl of His-FIH1 were mixed in a buffer (50 mM Tris-HCl, pH 7.5, 5 mM KCl, 1.5 mM MgCl2) supplemented with ascorbic acid (final concentration: 400 μM) and α-ketoglutarate (final concentration: 100 μM). Then, 4 μM of the F-HIF-1α peptide containing the 788th-822nd amino acid was added to the resulting mixture, and reacted at room temperature for 2 hours. Excess salts in the reactant were removed by ZipTipC18, and the eluted reactant was analyzed by MALDI mass spectrometry.

[5] = test system: HIF-1α; assay: HIF-1α protein expression in HepG2 cells, western blotting; assay type: cell-based; conditions: HepG2, normoxia, 6 hours; increase similar to HIF-1α in hypoxia
Description: In order to examine the change of the HIF-1α protein expression by baicalein in a cell, HepG2 strain was grown to 80% confluence on a 60 mm tissue culture plate. Baicalein with increasing concentrations was added to the cultured cell and further cultured in normoxia for 6 hours, and as controls, same cell mixtures were cultured in hypoxia. The cells were washed with 4° C. phosphate based saline buffer, and eluted with radioimmunoprecipitation analysis solution containing 150 mM NaCl, 1% Nonidet P-40, 0.5% deoxycholate, 0.1% SDS, 50 mM Tris (pH 7.4). 100 μg/ml PMSF, 10 μg/ml leupeptin, 1 μg/ml antipain, 10 μg/ml aprotinin, 50 mM β-glycerophosphate, 25 mM NaF, 20 mM EGTA, 1 mM DTT and 1 mM Na3VO4. Then, the cells were centrifuged, and the cell extracts thus obtained were quantified by Bradford protein assay. In order to perform the immunoblot against HIF-1α, 20 μg of the cell extract was suspended in SDS sample buffer, and heated in a water bath for 5 min to completely solublize the protein structure. […] The membrane was treated with ECL solution and exposed to X-ray film for 5 min, and finally the HIF-1α protein was detected, and subjected to luminescence image analyzer (Model LAS-3000, Fuji) for detailed analysis.

[6] = test system: HIF-1α binding to hypoxia-response element (HRE); assay: p(HRE)4-luciferase reporter assay in HeLa cells; assay type: cell-based; conditions: 20 μM baicalein, 16 hours
Description: In order to examine the binding of the HIF-1α stabilized by baicalein in normoxia with HRE existed on a target gene, luciferase assay was conducted as follows. Specifically, HeLa cells (5×10^4 cells/well) were cultured on a 24-well plate, and 100 ng of p(HRE)4-luciferase plasmid and 50 ng of β-galactosidase expression vector, pCHO110, were co-transfected thereinto. As a control to 20 μM of baicalein, DFO (deferoxamine) and CoCl2 were added to the cells, respectively, and cultured for 16 hours. The cell extract was obtained, and the luciferase activity thereof was measured by luminometer (Tuner Designs).
The value was normalized for the β-galactosidase activity value and the total amount of protein measured by BCA protein analysis (Sigma).

[7] = test system: VEGF; assay: VEGF mRNA expression in HepG2 cells, RT-PCR; assay type: cell-based; conditions: HepG2, normoxia
Description: In order to examine the expression of VEGF known as a representative target gene of the HIF-1α, RT-PCR was conducted as follows. In normoxia, DMSO was treated to HepG2 cells as a negative control, and its influence was observed. As a positive control, HepG2 cells were cultured in hypoxia for 16 hours. In order to amplify cDNA of VEGF mRNA expressed in the cell, the RNA of the cultured cell was subjected to RT-PCR by using forward primer (5′-ccatgaactttctgctdtctt-3′, SEQ ID NO: 5) and reverse primer (5′-[…]-3′, SEQ ID NO: 6). Further, in order to amplify cDNA of 18s rRNA, the RNA of the cultured cell was subjected to RT-PCR by using forward primer (5′-[…]-3′, SEQ ID NO: 7) and reverse primer (5′-[…]-3′, SEQ ID NO: 8) (Table 2).
The amplified product was subjected to electrophoresis on 1.5% agarose-gel, and the mRNA expression was quantitated by phosphoimager (Model Las3000, Fuji) (see FIG. 6a).

[8] = test system: VEGF; assay: VEGF secretion by HeLa cells, ELISA; assay type: cell-based, human; conditions: 20 μM baicalein, 16 hours, compared with DMSO control
Description: In order to examine the secretion change of the VEGF protein known as a secretion protein synthesized in a cell, its cell culture solution was subjected to ELISA as follows. Specifically, HeLa cells aliquoted on a 24-well plate were cultured for 24-48 hour, and DMSO, CoCl2 (200 μM), DFO (125 μM) and baicalein (20 μM) were treated thereto, respectively. After culturing for 16 hours, the cell solution was recovered and centrifuged to separate supernatant. The supernatant was aliquoted on an antibody-coated well plate using human VEGF Quantikine ELISA kit (R&D Systems) to monitor the amount of VEGF in the supernatant. Then, an antibody for VEGF was treated to each well, followed by measuring the amount of the VEGF using luminometer.

[9] = test system: 12-lipoxygenase; conditions: Daotai et al., JBC 281; cited from earlier work

O=c1cc(-c2ccccc2)oc2cc(O)c(O)c(O)c12 [baicalein]
IC50 [1]: ~15 µM and 15 µM | fluorescence polarization value of F-HyP564 peptide with VBC protein ([2]; baicalein at the highest concentration, 500 nM VBC protein): did not decrease | effect on interaction of F-HyP564 with the VBC protein (fluorescence polarization) ([2]; up to 20 μM of baicalein): did not affect | hydroxylation of the proline residue of B-P564 peptide [3]: not hydroxylated | hydroxylation of the asparagine residue of F-HIF-1α peptide (788th-822nd amino acid) [4]: not hydroxylated | concentration of baicalein at which HIF-1α protein expression increased [5]: more than 50 μM | luciferase activity normalized for total protein amount [6]: a similar result was obtained | amount of the expressed VEGF (FIGS. 6a and 6b) [7]: increases | amount of VEGF in the supernatant [8]: significantly increase | activity of 12-lipoxygenase [9]: inhibits
